The record followed here is patent US8119812B2, “Thiazolidinone derivative” (SBI Biotech Co., Ltd., priority 2009, dated 2012).

The test system of the experiment is HeLa cells. Put plainly: Cell proliferation inhibitory activity, WST-1 assay, HeLa cells. It is filed as cell-based. To be noted: FIG. 1; incubation for 24 hours after adding compound; absorbance at 450 nm (WST-1); cell line not given. The protocol: Cell proliferation inhibitory activity of the thiazolidinone derivatives shown in Tables 2 to 21 and 26 to 29 were evaluated according to the following procedure.
HeLa cells (ATCC) were cultured in a medium (DMEM-10% FCS-Penicillin/Streptomycin) on 10-cm dishes. The medium was removed from the HeLa cells (ATCC) in healthy growth conditions (70 to 90% confluent), the cells were detached by treating with 2 ml of trypsin (TrypL Express, GIBCO), and then the cells were collected using the same medium.
After the collected cells were suspended in the medium at a concentration of 5×10^4 cells/mL, 100 μL, each of the cells were seeded on 96-well plates (FALCON, 3530) at a concentration of 5×10^3 […]. Each medium alone without cells was added to the blank wells. The wells were incubated in a 5% CO2 incubator. The culture media used are as follows.
HeLa cells: DMEM-10% FCS-Penicillin/Streptomycin,
The following day after the start of culturing, the medium was replaced with that including candidate compounds. At the beginning, the candidate compounds were diluted with DMSO, and a 10-step dilution series from 0 μM to 12.5 mM was prepared. 249 μL of the medium was added to 1.5-ml tubes. Then, 1 μL of the compound diluted with DMSO was added thereto at each concentration, and this was mixed. By this procedure, the ratio of DMSO included becomes 1/250. More specifically, in case of the following dilution series, the final concentrations of candidate compounds are as follows.
After removing the medium in wells, each candidate compound was added in duplicate to each well at a volume of 100 μL per one concentration. […]
On the next day or the day after the next day (24 to 48 hours later), 10 μL of Cell Proliferation Reagent WST-1 (ROCHE) was added to each well. […] The formed pigment can be assayed by measuring the absorbance at 450 nm. After incubation for an hour in a CO2 incubator, the absorbance at 450 nm was measured using a microplate reader. The values were evaluated by subtracting the blank value, and plotted by curve-fitting using the Prism software, and IC50 was calculated.
(Tetrazolium assays rely on reduction of a dye to a coloured formazan, in cell work by metabolically active cells.)
Consider `COC(=O)N(C)CCOc1ccc(/N=C2/NC(=O)/C(=C/c3cnc(NC(=O)C4CC4)s3)S2)c(C)c1` [Compound 137, (2Z,5Z)-N-(2-{4-[(5-{[2-(cyclopropylcarbonylamino) (1,3-thiazol-5-yl)]methylene}-4-oxo(1,3-thiazolidin-2-ylidene))azamethyl]-3-methylphenoxy}ethyl) methoxy-N-methylcarboxamide], for which the cell proliferation-inhibiting effect result is listed as “strong inhibitory effect”.
As to `Cc1cc(OCCN(C)C)ccc1/N=C1/NC(=O)/C(=C/c2cnc(NC(=O)C3CC3)s2)S1` [Compound 119, (2Z,5Z)-N-(5{[2-({4-[2-(dimethylamino)ethoxy]-2-methylphenyl}azamethylene)-4-oxo(1,3-thiazolidin-5-ylidene)]methyl}(1,3-thiazol-2-yl))cyclopropylcarboxamide], the cell proliferation-inhibiting effect result was “strong inhibitory effect”.
For the molecule `Cc1cc(OC2CCN(C)C2)ccc1/N=C1/NC(=O)/C(=C/c2cnc(NC(=O)C3CC3)s2)S1` (stereo not drawn) [Compound 139, (2Z,5Z)-cyclopropyl-N-{5-[(2-{[2-methyl-4-(1-methylpyrrolidin-3-yloxy)phenyl]azamethylene}-4-oxo(1,3-thiazolidin-5-ylidene))methyl] (1,3-thiazol-2-yl)}carboxamide], the cell proliferation-inhibiting effect result was “strong inhibitory effect”.
